Source: ChEMBL document CHEMBL5608113, “Targeting of CAF-induced therapy resistance in CRC organoid-stroma co-cultures” (2024)
Values joined by “and” are separate entries in the source; they are usually repeats but may differ in a detail not shown here. Identical values can stand only once.

Legend:
Format in all cases: functional, Homo sapiens
Details in all cases: for viability at 10 µM / viability at 1 µM: Homo sapiens, read-out: Cell Viability; for viability at 1 µM: Concentration 1 uM
Colon cancer organoid [1] = experiment: Targeting of F14 CAF-induced therapy resistance in O14 CRC organoid-stroma co-culture. Cell viability is reported with Gefitinib.
Colon cancer organoid [2] = experiment: Targeting of F14 CAF-induced therapy resistance in O23 CRC organoid-stroma co-culture. Cell viability is reported with SN-38.
Colon cancer organoid [3] = experiment: Targeting of F14 CAF-induced therapy resistance in O23 CRC organoid-stroma co-culture. Cell viability is reported without Gefitinib.
Colon cancer organoid [4] = experiment: Targeting of F14 CAF-induced therapy resistance in O14 CRC organoid-stroma co-culture. Cell viability is reported without Gefitinib.
Colon cancer organoid [5] = experiment: Targeting of F14 CAF-induced therapy resistance in O23 CRC organoid-stroma co-culture. Cell viability is reported with Gefitinib.

Row | SMILES | viability at 10 µM (Colon cancer organoid [1]; Concentration 10 uM) | viability at 10 µM (Colon cancer organoid [2]; Concentration 10 uM) | viability at 10 µM (Colon cancer organoid [3]; Concentration 10 uM) | viability at 10 µM (Colon cancer organoid [4]; Concentration 10 uM) | viability at 10 µM (Colon cancer organoid [5]; Concentration 10 uM) | further results
1 | c1ccc(N2CCN(Cc3nc4ccccc4[nH]3)CC2)nc1 | 57.8% | 106% | 163% | 134% | 66.8% | –
2 | O=C(Nc1cccnn1)N1CCC(=Cc2cccc(Oc3ccc(C(F)(F)F)cn3)c2)CC1 | 37.7% | 105% | 114% | 94% | 54.6% | –
3 | Cc1sc2c(c1C)C(c1ccc(Cl)cc1)=N[C@@H](CC(=O)OC(C)(C)C)c1nnc(C)n1-2 | 6.17% | 53.4% | 65.2% | 25.8% | 35.6% | –
4 | COc1cc2c(cc1-c1c(C)noc1C)ncc1[nH]c(=O)n([C@H](C)c3ccccn3)c12 | 9.93% | 91.5% | 143% | 30.2% | 78.1% | –
5 | Cc1ccc(NC(=O)Nc2cc(C(F)(F)F)ccc2F)cc1Nc1ccc2c(c1)NC(=O)/C2=C\c1ccc[nH]1 | 40% | 74.2% | 117% | 121% | 82.1% | –
6 | COc1ccc(Cn2ccc3ccc(C(=O)NO)cc32)cc1 | 52.8% | 94.6% | 126% | 75.4% | 89.4% | –
7 | COc1ccccc1S(=O)(=O)Nc1ccc2c(c1)CN(C)C(=O)N2 | 57.5% | 73.2% | 105% | 101% | 53.9% | –
8 | CCCCNc1ncc(-c2ccc(CN3CCOCC3)cn2)c(N[C@H]2CC[C@H](O)CC2)n1 | 3.91% | 28.9% | 18.1% | 9.12% | 12% | –
9 | CCOC(=O)Nc1cc(-c2ccc(C)c(NS(C)(=O)=O)c2)nn2c(C)nnc12 | 14% | 79.5% | 146% | 59.2% | 63.4% | –
10 | CCOC(=O)CCNc1cc(N2CCc3ccccc3CC2)nc(-c2ccccn2)n1 | 59.5% | 121% | 155% | 93.3% | 59.2% | –
11 | COc1ccccc1C(=O)Nc1cc2c(cc1N1CCCC1)n(C)c(=O)n2C | 46.1% | 84.2% | 115% | 114% | 79% | –
12 | COc1ccc(CCc2nc3cc(-c4c(C)noc4C)ccc3n2C[C@H](C)N2CCOCC2)cc1Cl | 61.4% | 78.6% | 91.4% | 121% | 47.7% | –
13 | CCCOc1ccn2c(C(C)=O)cc(-c3ccccc3S(C)(=O)=O)c2c1 | 59.1% | 98.8% | 113% | 111% | 65.2% | –
14 | COc1cc(C#N)ccc1S(=O)(=O)Nc1ccc2c(c1)cc(C)c(=O)n2C | 66.9% | 127% | 149% | 101% | 86% | –
15 | O=C(/C=C/N1C[C@H]2C[C@@H]1CN2c1ccccn1)c1ccccc1O | 70.1% | 45.4% | 77.2% | 109% | 38.6% | –
16 | CCn1cc(-c2cccc(C(F)(F)F)c2)c2sc(C(=N)NC3CCS(=O)(=O)CC3)cc2c1=O | 66.7% | 84.2% | 144% | 132% | 68.8% | –
17 | CCCOc1ccn2c(C(C)=O)cc(-c3cccc(OC)c3)c2c1 | 64.8% | 92.8% | 112% | 113% | 74.1% | –
18 | COc1cc2c(cc1NS(=O)(=O)c1ccc(Br)cc1C)n(C)c(=O)n2C | 57.4% | 117% | 169% | 86.7% | 69.8% | –
19 | CCCS(=O)(=O)c1nc(NC2CC2)cc(-c2ccc3c(ccn3C3CC(C)(C)NC(C)(C)C3)c2)n1 | 49.6% | 77.1% | – | – | 68.4% | Cell Viability (Colon cancer organoid [1]; Concentration 10 uM, 10 µM): 57.1178%; Cell Viability (Colon cancer organoid [2]; Concentration 10 uM, 10 µM): 68.6533%; Cell Viability (Colon cancer organoid [3]; Concentration 10 uM, 10 µM): 73.362% and 105.525%; Cell Viability (Colon cancer organoid [4]; Concentration 10 uM, 10 µM): 91.0371% and 136.896%; Cell Viability (Colon cancer organoid [5]; Concentration 10 uM, 10 µM): 66.056%
20 | COc1cc(-c2cn(C)c(=O)c3cnccc23)c(OC)cc1CN(C)C | 53% | 44.2% | 55.4% | 95.6% | 31.8% | –
21 | CCC(=O)N1CCOc2c(cc(-c3ccc(OC)c(OC)c3)cc2OCC2CCCN(C)C2)C1 (stereo not drawn) | 74.7% | 96.1% | 119% | 102% | 60.4% | –

Row | SMILES | viability at 10 µM (Colon cancer organoid [1]; Concentration 10 uM) | viability at 10 µM (Colon cancer organoid [2]; Concentration 10 uM) | viability at 10 µM (Colon cancer organoid [3]; Concentration 10 uM) | viability at 10 µM (Colon cancer organoid [4]; Concentration 10 uM) | viability at 10 µM (Colon cancer organoid [5]; Concentration 10 uM) | further results
22 | CC(=O)c1cc(-c2cc(C(=O)NC3CC3)ccc2C)c2ncccn12 | 65.1% | 91.2% | 108% | 83.8% | 71.5% | –
23 | CN1C[C@H](Nc2cnn(C)c(=O)c2Br)C[C@H](c2ccccc2)C1 | 64.7% | 66.4% | 143% | 84.6% | 68.1% | –
24 | O=C1CCc2cc(Nc3cc(OC4CCOCC4)c([N+](=O)[O-])cc3Cl)ccc2N1 | 75.9% | 60.5% | 117% | 112% | 57.9% | –
25 | Cc1cc2c(cc1N1C(=O)c3cccc4c(CCCO)ccc(c34)C1=O)n(C)c(=O)n2C | 43.3% | 81.8% | 150% | 47.7% | 71.7% | –
26 | c1ccc([C@@H]2C[C@H]2NC2CCNCC2)cc1 | 58.2% | 68.3% | 79.5% | 114% | 68% | –
27 | Cn1cc(CCn2cnc(-c3cnn(C)c3)c2-c2ccc(C#N)cc2)cn1 | 71.4% | 92.5% | 141% | 105% | 63.6% | –
28 | Cc1nnc2c3ccccc3c(N[C@@H](C)[C@H](c3ccccc3)N(C)C)nn12 | 53.6% | 141% | 119% | 69.8% | 55.2% | –
29 | O=C(O)c1cc(-c2ccc(C3CCNCC3)cc2)c2ccc(-c3ccc(C(F)(F)F)cc3)cc2c1 | 34.4% | 60.3% | 165% | 77% | 47.6% | –
30 | Cc1c(C(=O)O)cc(-c2ccc(C3CCNCC3)cc2)c2ccc(-c3ccc(C(F)(F)F)cc3)cc12 | 38.7% | 76.8% | 143% | 64.2% | 48.3% | –
31 | C[C@@H](c1cccc(CN)c1)n1cc(Cl)cc(C(N)=O)c1=N | 33.4% | 99.7% | 172% | 106% | 51% | –
32 | Cc1c(Nc2ccc(S(=O)(=O)N3CCN(C)CC3)cc2F)nc2ccc(Nc3cnn(C4CC4)c3)cn2c1=O | 53% | 71.2% | 118% | 68.6% | 115% | –
33 | CCCCN(CCCC)C(=O)CN1C[C@H](c2cc(OC)c3c(c2)OCO3)[C@@H](C(=O)O)[C@@H]1CC(C)(C)CCC | – | – | – | – | – | viability at 1 µM (Colon cancer organoid [1]): 44.1%; viability at 1 µM (Colon cancer organoid [2]): 115%; viability at 1 µM (Colon cancer organoid [3]): 145%; viability at 1 µM (Colon cancer organoid [4]): 125%; viability at 1 µM (Colon cancer organoid [5]): 50%
34 | C[C@@H](c1cccc(C#N)c1)n1cc(Cl)cc(C(N)=O)c1=N | 34.3% | 62.2% | 126% | 76.7% | 49.6% | –
35 | O=C(Nc1cccnn1)N1CC(C/C=C/c2cncc(Oc3ccc(C(F)(F)F)cn3)n2)C1 | 55.5% | 83.6% | 132% | 93.5% | 50.3% | –
36 | Cc1c(Nc2ccc(S(=O)(=O)N3CCN(C)CC3)cc2F)nc2ccc(-c3cnn(C4CC4)c3)cn2c1=O | 69.8% | 85.7% | 153% | 51.6% | 88.9% | –
37 | NC1(c2ccc(-c3nc4c(O)ccnn4c3-c3ccccc3)cc2)CCC1 | – | – | – | – | – | viability at 1 µM (Colon cancer organoid [1]): 49.5%; viability at 1 µM (Colon cancer organoid [2]): 65%; viability at 1 µM (Colon cancer organoid [3]): 122%; viability at 1 µM (Colon cancer organoid [4]): 98.8%; viability at 1 µM (Colon cancer organoid [5]): 69.1%
38 | CCNC(=O)c1cc2c(N3CCOCC3C)ccnc2[nH]1 (stereo not drawn) | 55.4% | 97.3% | 156% | 130% | 56.4% | –
39 | COc1ccccc1C(=O)Nc1cc2c(cc1N1CCNCC1C)n(C)c(=O)n2C (stereo not drawn) | 66% | 55.3% | 84% | 98.7% | 56.5% | –
40 | COc1cccc2c1C(=O)c1c(O)c3c(c(O)c1C2=O)CC(O)(C(=O)CO)CC3OC1CC(N)C(O)C(C)O1 (stereo not drawn) | 0.921% | 5.38% | 3.9% | 1.66% | 1.62% | –
41 | Cn1cncc1[C@](O)(COc1ccc(C#N)cc1-c1ccc(OC(F)(F)F)cc1)c1ccc(C#N)cc1 | 18.5% | 76.2% | 75.6% | 47% | 40.9% | –
